Test results as given in ChEMBL document CHEMBL3868615, “Decahydrobenzoquinolin-5-one sigma receptor ligands: Divergent development of both sigma 1 and sigma 2 receptor selective examples” (Bioorg Med Chem Lett, 2016).

Columns and labels:
[1] = target: Delta-type opioid receptor (Homo sapiens, UniProt P41143); test: Displacement of [3H]DADLE from human DOR expressed in HEK cells measured after 90 mins by microbeta scintillation counting method; type: cell-based, HEK293
[2] = target: Mu-type opioid receptor (Homo sapiens, UniProt P35372); test: Displacement of [3H]DAMGO from human MOR expressed in HEK cells after 90 mins by microbeta scintillation counting method; type: cell-based, HEK293
[3] = target: Kappa-type opioid receptor (Homo sapiens, UniProt P41145); test: Displacement of [3H]U69593 from KOR (unknown origin) expressed in HEKT cells measured after 90 mins by microbeta scintillation counting method; type: cell-based
[4] = target: Sigma non-opioid intracellular receptor 1 (Cavia porcellus, UniProt Q60492); test: Displacement of [3H]pentazocine from guinea pig sigma1 receptor measured after 90 mins by microbeta scintillation counting method
[5] = Displacement of [3H]DTG from sigma2 receptor in rat PC12 cells measured after 90 mins by microbeta scintillation counting method; type: cell-based; settings: pc-12
[6] = tested on: PC-12; test: Selectivity ratio of Ki for sigma2 receptor in rat PC12 cells to Ki for guinea pig sigma1 receptor; type: cell-based
[7] = tested on: PC-12; test: Selectivity ratio of Ki for guinea pig sigma1 receptor to Ki for sigma2 receptor in rat PC12 cells; type: cell-based
[8] = target: T1, 5-hydroxytryptamine receptor 1A (Homo sapiens, UniProt P08908); test: Displacement of [3H]Way100635 from human 5-HT1A receptor expressed in CHO cells measured after 90 mins by microbeta scintillation counting method; type: cell-based
T1 sequence (P08908 whole entry): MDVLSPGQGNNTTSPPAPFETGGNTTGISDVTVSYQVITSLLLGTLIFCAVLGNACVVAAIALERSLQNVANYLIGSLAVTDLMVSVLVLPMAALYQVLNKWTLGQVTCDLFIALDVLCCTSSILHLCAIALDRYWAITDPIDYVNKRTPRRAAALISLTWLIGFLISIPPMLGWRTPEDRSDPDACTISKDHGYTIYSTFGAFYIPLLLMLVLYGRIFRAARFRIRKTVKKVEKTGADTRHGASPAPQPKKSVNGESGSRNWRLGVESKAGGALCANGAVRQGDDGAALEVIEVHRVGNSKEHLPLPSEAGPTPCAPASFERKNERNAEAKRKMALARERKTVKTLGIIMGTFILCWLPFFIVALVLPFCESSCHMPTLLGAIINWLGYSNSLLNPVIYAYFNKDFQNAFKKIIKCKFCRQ

Kappa-type opioid receptor, sequence (P41145 whole entry): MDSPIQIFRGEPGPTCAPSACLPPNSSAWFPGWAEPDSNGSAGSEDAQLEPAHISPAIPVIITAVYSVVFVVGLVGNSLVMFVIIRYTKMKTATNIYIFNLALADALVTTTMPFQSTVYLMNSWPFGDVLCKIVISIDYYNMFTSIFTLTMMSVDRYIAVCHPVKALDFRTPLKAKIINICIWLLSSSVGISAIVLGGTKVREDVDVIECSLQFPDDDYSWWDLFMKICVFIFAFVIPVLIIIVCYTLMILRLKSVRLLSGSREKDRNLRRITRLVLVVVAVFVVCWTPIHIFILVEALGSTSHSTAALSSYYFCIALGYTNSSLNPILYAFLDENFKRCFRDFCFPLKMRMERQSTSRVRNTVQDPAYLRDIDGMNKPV
Mu-type opioid receptor, sequence (P35372 whole entry): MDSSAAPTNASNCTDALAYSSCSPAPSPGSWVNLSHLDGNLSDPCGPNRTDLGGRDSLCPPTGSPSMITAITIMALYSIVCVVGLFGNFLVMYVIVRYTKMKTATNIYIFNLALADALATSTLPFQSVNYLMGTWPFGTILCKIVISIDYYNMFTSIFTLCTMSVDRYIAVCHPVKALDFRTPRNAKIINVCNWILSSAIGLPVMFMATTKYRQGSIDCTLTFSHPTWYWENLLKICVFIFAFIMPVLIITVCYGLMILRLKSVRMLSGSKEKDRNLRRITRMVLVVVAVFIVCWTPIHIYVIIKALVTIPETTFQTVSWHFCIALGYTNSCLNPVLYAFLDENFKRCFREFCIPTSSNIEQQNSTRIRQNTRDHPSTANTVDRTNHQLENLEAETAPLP
Sigma non-opioid intracellular receptor 1, sequence (Q60492 whole entry): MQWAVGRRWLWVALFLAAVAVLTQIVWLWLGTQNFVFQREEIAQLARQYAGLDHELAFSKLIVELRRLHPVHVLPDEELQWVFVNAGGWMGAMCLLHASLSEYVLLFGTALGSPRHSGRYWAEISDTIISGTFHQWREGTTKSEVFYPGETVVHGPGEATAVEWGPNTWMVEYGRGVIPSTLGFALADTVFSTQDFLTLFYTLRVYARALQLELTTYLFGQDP
Delta-type opioid receptor, sequence (P41143 whole entry): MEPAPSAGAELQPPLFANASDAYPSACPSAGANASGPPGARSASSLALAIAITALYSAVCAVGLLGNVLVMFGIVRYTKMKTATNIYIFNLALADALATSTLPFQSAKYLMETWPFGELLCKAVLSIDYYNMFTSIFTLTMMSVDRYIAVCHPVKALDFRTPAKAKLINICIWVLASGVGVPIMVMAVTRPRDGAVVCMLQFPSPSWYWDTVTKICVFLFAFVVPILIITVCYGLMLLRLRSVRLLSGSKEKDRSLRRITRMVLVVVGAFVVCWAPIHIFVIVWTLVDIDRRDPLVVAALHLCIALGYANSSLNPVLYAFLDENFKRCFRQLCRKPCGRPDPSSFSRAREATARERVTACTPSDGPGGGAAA

| SMILES | Ki [1] | Ki [2] | Ki [3] | Ki [4] | Ki [5] | Ratio Ki [6] | Ratio Ki [7] | Ki [8] |
| --- | --- | --- | --- | --- | --- | --- | --- | --- |
| COCCN1CC[C@H]2CC(=O)[C@H](Cc3ccccc3)[C@H]3CCC[C@@H]1[C@H]23 | > 10 µM | > 10 µM | > 10000 nM | 2 nM | 35 nM | 17.5 | – | – |
| CC[C@H]1c2nc3ccccc3cc2[C@@H]2CCN(C)[C@@H]3CCC[C@H]1[C@H]32 | > 10 µM | > 10 µM | 3490 nM | 189 nM | 86 nM | 0.5 | 2.2 | – |
| CC[C@H]1C(=O)C[C@@H]2CCN(C(=O)NCc3ccc(Cl)cc3)[C@@H]3CCC[C@H]1[C@@H]23 | > 10 µM | > 10 µM | > 10000 nM | 722 nM | 1910 nM | 2.6 | – | – |
| O=C(CCCN1CCC(O)(c2ccc(Cl)cc2)CC1)c1ccc(F)cc1 [HALOPERIDOL] | – | – | – | – | 14 nM | – | – | – |
| CC[C@H]1C(=O)C[C@@H]2CCN(CCC(C)C)[C@@H]3CCC[C@H]1[C@@H]23 | > 10 µM | > 10 µM | 1280 nM | 4 nM | 6 nM | 1.5 | – | – |
| CC(C)CCN1CC[C@H]2CC(=O)[C@H](Cc3ccccc3)[C@H]3CCC[C@@H]1[C@H]23 | > 10 µM | > 10 µM | 711 nM | 2 nM | 3 nM | 1.5 | – | – |
| CCCN1CC[C@H]2CC(=O)C[C@H]3CCC[C@@H]1[C@@H]32 | > 10 µM | > 10 µM | > 10000 nM | 126 nM | 127 nM | 1 | – | – |
| CCCN1CC[C@@H]2CC(=O)C[C@H]3CCC[C@H]1[C@H]32 | > 10 µM | > 10 µM | > 10000 nM | 345 nM | 663 nM | 1.9 | – | – |
| COc1ccc(C[C@H]2C(=O)C[C@@H]3CCN(CC4CCCCC4)[C@@H]4CCC[C@H]2[C@@H]34)cc1 | > 10 µM | > 10 µM | 1600 nM | 10 nM | 3 nM | 0.3 | 3 | – |
| CCCN1CC[C@H]2c3cc4cccc(OC)c4nc3[C@H](CC)[C@H]3CCC[C@@H]1[C@@H]32 | > 10 µM | > 10 µM | 1690 nM | 171 nM | 63 nM | 0.4 | 2.7 | – |
| CC[C@H]1C(=O)C[C@@H]2CCN(S(=O)(=O)c3ccc(C)cc3)[C@@H]3CCC[C@H]1[C@@H]23 | > 10 µM | > 10 µM | > 10000 nM | > 10000 nM | > 10000 nM | – | – | – |
| CCCN1CC[C@H]2CC(=O)[C@H](CC)[C@H]3CCC[C@@H]1[C@H]23 | > 10 µM | > 10 µM | > 10000 nM | 11 to 12 nM | 230 to 401 nM | 20.9 | – | 4.5 µM |
| O=C1C[C@@H]2CCN(Cc3cccs3)[C@@H]3CCC[C@@H]([C@@H]23)[C@H]1Cc1ccccc1 | > 10 µM | > 10 µM | 638 nM | 3 nM | 44 nM | 14.7 | – | – |

Second part, led by results:

| Ki [1] | Ki [2] | Ki [3] | Ki [4] | SMILES | Ki [5] | Ratio Ki [6] | Ratio Ki [7] | Ki [8] |
| --- | --- | --- | --- | --- | --- | --- | --- | --- |
| > 10 µM | > 10 µM | > 10000 nM | 7 nM | CCCN1CC[C@H]2CC3=Nc4ccccc4[C@]3(CC)[C@H]3CCC[C@@H]1[C@H]23 | 76 nM | 10.9 | – | – |
| > 10 µM | > 10 µM | 493 nM | 70 nM | CCCN1CC[C@H]2c3cc4ccccc4nc3[C@H](CC)[C@H]3CCC[C@@H]1[C@@H]32 | 27 nM | 0.4 | 2.6 | – |
| > 10 µM | > 10 µM | > 10000 nM | 137 nM | CC[C@H]1C(=O)C[C@@H]2CCN(C)[C@@H]3CCC[C@H]1[C@@H]23 | > 5930 nM | > 43.3 | – | – |
| > 10 µM | > 10 µM | > 10000 nM | 26 nM | CC[C@H]1C(=O)C[C@@H]2CCN(CCOC)[C@@H]3CCC[C@H]1[C@@H]23 | 423 nM | 16.3 | – | – |
| > 10 µM | > 10 µM | 3620 nM | 1 nM | CCCN1CC[C@H]2CC(=O)[C@H](Cc3ccccc3)[C@H]3CCC[C@@H]1[C@H]23 | 5 nM | 5 | – | – |
| > 10 µM | > 10 µM | 372 nM | 209 nM | CCCN1CC[C@H]2c3cc4cc(Cl)ccc4nc3[C@H](CC)[C@H]3CCC[C@@H]1[C@@H]32 | 17 nM | 0.08 | 12.3 | – |
| > 10 µM | > 10 µM | 1400 nM | 3 nM | O=C1C[C@@H]2CCN(Cc3nccs3)[C@@H]3CCC[C@@H]([C@@H]23)[C@H]1Cc1ccccc1 | 270 nM | 90 | – | – |
| > 10 µM | > 10 µM | > 10000 nM | 407 nM | CC[C@H]1C(=O)C[C@@H]2CCN(Cc3nccs3)[C@@H]3CCC[C@H]1[C@@H]23 | 760 nM | 1.9 | – | – |
| > 10 µM | 0.892 µM | 1470 nM | 6 nM | CC[C@H]1C(=O)C[C@@H]2CCN(Cc3cccs3)[C@@H]3CCC[C@H]1[C@@H]23 | 187 nM | 31.2 | – | – |
| > 10 µM | > 10 µM | > 10000 nM | 55 nM | CCCN1CC[C@H]2C[C@@H](O)[C@H](CC)[C@H]3CCC[C@@H]1[C@H]23 | 183 nM | 3.3 | – | – |
| > 10 µM | > 10 µM | > 10000 nM | 5 nM | COc1ccc(C[C@H]2C(=O)C[C@@H]3CCN(C)[C@@H]4CCC[C@H]2[C@@H]34)cc1 | 251 nM | 50.2 | – | – |
| > 10 µM | 1.9 µM | 278 nM | 4 nM | CC[C@H]1C(=O)C[C@@H]2CCN(CC3CCCCC3)[C@@H]3CCC[C@H]1[C@@H]23 | 3 nM | 0.8 | – | – |
| > 10 µM | > 10 µM | 1230 nM | 3 nM | O=C1C[C@@H]2CCN(CC3CCCCC3)[C@@H]3CCC[C@@H]([C@@H]23)[C@H]1Cc1ccccc1 | 2 nM | 0.7 | – | – |
| > 10 µM | > 10 µM | > 10000 nM | 3 nM | COc1ccc(C[C@H]2C(=O)C[C@@H]3CCN(CCC(C)C)[C@@H]4CCC[C@H]2[C@@H]34)cc1 | 6 nM | 2 | – | – |
| > 10 µM | 0.632 µM | > 10000 nM | 2 nM | CCCCCCCN1CC[C@H]2CC(=O)[C@H](CC)[C@H]3CCC[C@@H]1[C@H]23 | 8 nM | 4 | – | – |
| > 10 µM | > 10 µM | > 10000 nM | 9 nM | CCCN1CC[C@H]2CC(=O)[C@H](Cc3ccc(OC)cc3)[C@H]3CCC[C@@H]1[C@H]23 | 29 nM | 3.2 | – | – |
